Data as given in PMC7438908, “Antimicrobial Peptide Reverses ABCB1-Mediated Chemotherapeutic Drug Resistance” (Frontiers in Pharmacology, 2020).
“Also recorded” adds a separate entry of the source. Where two headings read alike, the source gives them in different places. Where no end group is shown, it is not given here.

Columns and labels:
[1] = system: KB-3-1 cells; test: MTT reversal assay, parental KB-3-1; format: cell-based, human; details: no modulator, mean ± SD of at least three independent experiments in triplicate, read-out: IC50 of anticancer drug alone
Method: (§1) Therefore, we used KB-C2 and its parental cell line KB-3-1 in this study. […] All the cell lines were cultured in DMEM containing 1% penicillin/streptomycin and 10% FBS at 37°C with 5% CO2. All drug-resistant cell lines were cultured in drug-free medium for more than 2 weeks prior to their use.
(§2) Briefly, 5×10^3 cells per well were evenly seeded in 96-well microplates overnight. For the cytotoxicity assay, peptides and positive control of known substrate anticancer drugs were added in a designated concentration gradient. For the reversal assay, peptides and positive control agents were added 2 h before the addition of anticancer drugs within the specified concentration gradient. The plates were incubated in a culture condition for 68 h followed by the addition of 20 μL MTT solution (4 mg/mL) and further incubation of 4 h. After aspirating the culture medium and MTT solution, the formazan crystals were dissolved with 100 μL DMSO. The absorbance was determined at 570 nm with the accuSkan GO UV/Vis Microplate Spectrophotometer (Fisher Sci., Fair Lawn, NJ).

[2] = system: KB-C2 cells (ABCB1-overexpressing); test: MTT reversal assay, drug-selected ABCB1-overexpressing KB-C2; format: cell-based, human
Method: as §1, §2

[3] = system: HEK293/ABCB1 cells; test: MTT reversal assay, transfected HEK293/ABCB1; format: cell-based; details: HEK293/ABCB1, read-out: IC50 of anticancer drug alone
[4] = system: HEK293/pcDNA3.1 cells; test: MTT reversal assay, HEK293/pcDNA3.1; format: cell-based; details: no modulator, mean ± SD of at least three independent experiments in triplicate, read-out: IC50 of anticancer drug alone
Method: as §1, §2

[5] = system: ABCB1 in KB-C2 cells; test: [3H]-paclitaxel accumulation, KB-C2; format: cell-based, human; details: KB-C2 vs KB-3-1; after 2 hours of incubation; no inhibitor
Method: (§3) Drug accumulation and efflux assays were performed as previously described ([Fan et al., 2018]). For the drug accumulation assay, KB-C2 and KB-3-1 cells were seeded at 1×10^4 cells per well into 24-well plates and incubated at 37°C overnight. After cells were incubated in the presence or absence of peptide HX-12C and positive reversal agent for 72 h, the medium was replaced by medium containing 5 μM [^3H]-paclitaxel with peptide HX-12C or positive reversal agent. The drug medium was discarded after 2 h incubation, then cells were washed three times with ice-cold PBS and transferred to the scintillation fluid. The drug efflux assay was performed after discarding the drug medium, then cells were washed three times with ice-cold PBS and treated with the medium containing peptide HX-12C or positive reversal agent. There were three different time points (30, 60, and 120 min) at which after changing the medium, the cells were washed three times with ice-cold PBS and collected and transferred to the scintillation fluid. The Packard TRI-CARB1 190`A liquid scintillation analyzer was used to measure radioactivity. A parallel well of cells for each group was set up for cell number counting at the end of assay for the purpose of data normalization.

[6] = system: ABCB1 in KB-C2 cells; test: [3H]-paclitaxel efflux, KB-C2; format: cell-based, human; details: without inhibitor treatment, 2 h
Method: as §3

[7] = system: KB-3-1 cells; test: MTT cytotoxicity of peptides, parental KB-3-1; format: cell-based, human; details: KB-3-1 parental; modified MTT, 68 h + 4 h MTT, 570 nm; three independent experiments
Method: as §1, §2

[8] = molecular target: T1, ABCB1 (Homo sapiens, UniProt P08183); test: ABCB1 ATPase assay (vanadate-sensitive); format: biochemical; details: insect cell membrane vesicles
T1 construct: purchased BD Biosciences, San Jose, CA, USA; host or cells: High Five insect cells (membrane vesicles)
Method: The ABCB1 ATPase activity was measured based on vanadate-sensitive principle as previously described ([Zhang et al., 2016]). The High Five insect cells membrane vesicles (BD Biosciences, San Jose, CA, USA) were first incubated for 5 min in ATPase assay buffer at 37°C with or without 0.3 mM vanadate. Then peptide HX-12C at a concentration of 0 to 40 μM was adding to the assay buffer and incubated at 37°C for 3 min. After adding 5 mM Mg-ATP with a total volume of 0.1 mL, the ATPase reaction was initiated until stopped by adding 100 μL 5% SDS solution after incubation at 37°C for 20 min. The amount of inorganic phosphate (IP) was used to calculate the ATPase activity of ABCB1, detected at 800 nm using a spectrophotometer.

T1 sequence (P08183 whole entry): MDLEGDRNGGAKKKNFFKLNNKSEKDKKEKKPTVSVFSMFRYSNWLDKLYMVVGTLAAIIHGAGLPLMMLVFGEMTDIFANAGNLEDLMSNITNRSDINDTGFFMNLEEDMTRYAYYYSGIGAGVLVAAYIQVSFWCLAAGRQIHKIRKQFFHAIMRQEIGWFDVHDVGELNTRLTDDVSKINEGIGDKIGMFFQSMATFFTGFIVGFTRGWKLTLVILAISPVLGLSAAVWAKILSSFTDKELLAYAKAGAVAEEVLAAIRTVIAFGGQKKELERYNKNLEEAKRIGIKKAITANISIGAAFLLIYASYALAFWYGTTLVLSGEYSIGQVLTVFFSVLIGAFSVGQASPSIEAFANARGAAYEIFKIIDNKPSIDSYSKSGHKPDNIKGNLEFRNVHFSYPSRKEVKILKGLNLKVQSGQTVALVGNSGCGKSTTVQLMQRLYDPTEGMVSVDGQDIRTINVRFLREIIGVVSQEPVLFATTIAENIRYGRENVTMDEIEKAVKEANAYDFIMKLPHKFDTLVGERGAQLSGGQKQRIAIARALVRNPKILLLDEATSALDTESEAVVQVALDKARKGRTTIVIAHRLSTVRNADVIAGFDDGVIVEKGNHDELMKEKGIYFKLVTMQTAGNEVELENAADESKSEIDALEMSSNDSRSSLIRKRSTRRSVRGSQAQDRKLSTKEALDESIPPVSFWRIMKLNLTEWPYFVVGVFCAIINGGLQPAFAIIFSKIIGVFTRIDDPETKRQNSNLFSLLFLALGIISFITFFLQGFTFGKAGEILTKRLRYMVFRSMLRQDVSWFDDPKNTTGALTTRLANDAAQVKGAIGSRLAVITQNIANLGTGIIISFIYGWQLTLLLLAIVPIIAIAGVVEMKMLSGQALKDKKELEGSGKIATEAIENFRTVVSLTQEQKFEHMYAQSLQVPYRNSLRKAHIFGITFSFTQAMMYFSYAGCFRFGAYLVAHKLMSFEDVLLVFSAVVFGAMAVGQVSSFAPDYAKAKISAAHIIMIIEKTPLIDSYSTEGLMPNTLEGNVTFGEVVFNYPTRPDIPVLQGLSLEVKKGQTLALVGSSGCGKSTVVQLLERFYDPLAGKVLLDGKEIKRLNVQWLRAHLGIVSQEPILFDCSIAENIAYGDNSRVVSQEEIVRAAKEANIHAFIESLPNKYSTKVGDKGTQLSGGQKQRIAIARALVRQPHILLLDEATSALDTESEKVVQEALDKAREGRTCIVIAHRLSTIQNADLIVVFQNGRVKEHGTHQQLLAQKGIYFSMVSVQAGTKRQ

COc1cccc2c1C(=O)c1c(O)c3c(c(O)c1C2=O)C[C@@](O)(C(=O)CO)C[C@@H]3O[C@H]1C[C@H](N)[C@H](O)[C@H](C)O1 [Doxorubicin, doxorubicin]
IC50 ([1]; Homo sapiens): 1.19 ± 0.279 µM
IC50 in ABCB1-overexpressing cells compared with parental cells [2]: significantly higher than those of their parental cells
IC50 ([2]; Homo sapiens, KB-C2, read-out: IC50 of anticancer drug alone): 69.8 ± 4.64 µM
IC50 [3]: 31.2 ± 5.41 µM

CC(=O)O[C@H]1C(=O)[C@@]2(C)[C@H]([C@H](OC(=O)c3ccccc3)[C@]3(O)C[C@H](OC(=O)[C@H](O)[C@@H](NC(=O)c4ccccc4)c4ccccc4)C(C)=C1C3(C)C)[C@]1(OC(C)=O)CO[C@@H]1C[C@@H]2O [Paclitaxel, paclitaxel]
IC50 ([1]; Homo sapiens): 0.002 ± 0.0007 µM
IC50 ([4]; Homo sapiens): 1.45 ± 0.121 µM
IC50 [3]: 30.9 ± 4.67 µM

CC(=O)O[C@H]1C(=O)[C@@]2(C)[C@H]([C@H](OC(=O)c3ccccc3)[C@]3(O)C[C@H](OC(=O)[C@H](O)[C@@H](NC(=O)c4ccccc4)c4ccccc4)C(C)=C1C3(C)C)[C@]1(OC(C)=O)CO[C@@H]1C[C@@H]2O [[^3H]-paclitaxel]
level of [3H]-paclitaxel in KB-C2 lower than in KB-3-1 [5]: approximately 100 fold
decrease of intracellular [3H]-paclitaxel (efflux) [6]: about 50%

N.N.[Cl][Pt][Cl] [Cisplatin, cisplatin]
IC50 [1]: 1.79 ± 0.476 µM
IC50 [4]: 2.21 ± 0.541 µM

FFRKVLKLIRKIWR [HX-12C]
IC50 [7]: 7.53 µM
effect on ATPase activity of ABCB1 ([8]; 0 to 40 μM): stimulated ABCB1 ATPase activity; also recorded: can stimulate the ATPase activity of ABCB1 in a concentration-dependent manner
maximal stimulation of ABCB1 ATPase activity ([8]; peptide 0 to 40 μM, 37°C, 20 min, vanadate-sensitive, three independent experiments): 4.7 fold of the basic activity
